In ChEMBL document CHEMBL1201862, “PubChem BioAssay data set” (2004):
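Five concentrations, 48 hours, 96-well plates. At the GI50, growth is halved.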 Active and inactive are the calls of the source. Rule as the data show it: active = GI50 up to about 1.1 µM and inactive = higher.

Columns and labels:
Assay in all cases: growth of human tumour cells (NCI), 48 h
M14 = test system: M14
PC-3 = test system: PC-3
EKVX = test system: EKVX
MCF7 = test system: MCF7
Malme-3M = test system: Malme-3M
A549 = test system: A549
NCI/ADR-RES = test system: NCI/ADR-RES
SK-MEL-5 = test system: SK-MEL-5
SK-MEL-2 = test system: SK-MEL-2
OVCAR-5 = test system: OVCAR-5
SK-MEL-28 = test system: SK-MEL-28
KM12 = test system: KM12
K562 = test system: K562
LOX IMVI = test system: LOX IMVI
DU-145 = test system: DU-145
SK-OV-3 = test system: SK-OV-3
SW-620 = test system: SW-620
TK-10 = test system: TK-10
NCI-H226 = test system: NCI-H226

Measured: GI50

CC(C)(C)OC(=O)NC(Cc1ccc(OCc2ccccc2)cn1)C(=O)N1CCSCC1 (stereo not given)
inactive: M14 54.8 µM | PC-3 31.4 µM | EKVX 41.6 µM | MCF7 38.3 µM | Malme-3M 46.5 µM | A549 56.4 µM | NCI/ADR-RES 27.7 µM | SK-MEL-5 16.3 µM | SK-MEL-2 38.7 µM | OVCAR-5 93.1 µM | SK-MEL-28 78.7 µM | KM12 36.4 µM | K562 31.7 µM | LOX IMVI 28.3 µM | DU-145 51.9 µM | SK-OV-3 86.3 µM | SW-620 81.7 µM | TK-10 47.3 µM

O=C1Nc2ccc(Br)cc2/C1=C/C(=O)c1ccccc1
inactive: M14 11.1 µM | PC-3 9.38 µM | EKVX 14.5 µM | MCF7 4.18 µM | Malme-3M 6.37 µM | A549 16.1 µM | SK-MEL-5 16.7 µM | SK-MEL-2 16 µM | OVCAR-5 22.5 µM | NCI-H226 13.9 µM | SK-MEL-28 14.8 µM | KM12 7.83 µM | K562 5.57 µM | LOX IMVI 1.93 µM | DU-145 10.2 µM | SK-OV-3 17.6 µM | SW-620 2.25 µM | TK-10 1.82 µM

C1CCC(OC2CSC2)OC1 (stereo not given)
inactive: M14 > 100 µM | PC-3 > 100 µM | MCF7 > 100 µM | A549 > 100 µM | NCI/ADR-RES > 100 µM | SK-MEL-5 > 100 µM | NCI-H226 > 100 µM | SK-MEL-28 > 100 µM | KM12 > 100 µM | K562 > 100 µM | LOX IMVI > 100 µM | DU-145 > 100 µM | SK-OV-3 > 100 µM | SW-620 > 100 µM | TK-10 > 100 µM

CC1=NNC(=O)C1C1CC(c2c[nH]c3ccccc23)=NNC1=O (stereo not given)
inactive: M14 > 100 µM | PC-3 > 100 µM | EKVX 11.9 µM | Malme-3M > 100 µM | A549 > 100 µM | NCI/ADR-RES > 100 µM | SK-MEL-5 > 100 µM | SK-MEL-2 > 100 µM | OVCAR-5 > 100 µM | NCI-H226 > 100 µM | SK-MEL-28 > 100 µM | KM12 62.7 µM | K562 > 100 µM | DU-145 > 100 µM | SK-OV-3 > 100 µM | SW-620 > 100 µM | TK-10 > 100 µM

O=c1oc2ccccc2c(O)c1C1c2c(c3ccccc3oc2=O)Oc2c1c(=O)oc1ccccc21
inactive: PC-3 50.6 µM | EKVX 45 µM | Malme-3M > 100 µM | NCI/ADR-RES 60.7 µM | SK-MEL-5 21 µM | SK-MEL-2 51.6 µM | NCI-H226 22.4 µM | SK-MEL-28 30.8 µM | KM12 26.4 µM | K562 33.7 µM | LOX IMVI 38.5 µM | DU-145 53.5 µM | SW-620 38.2 µM | TK-10 51.9 µM

CCCCC1(NN=C2CCCCC2)C(=O)N(c2ccccc2)N(c2ccccc2)C1=O
inactive: M14 > 100 µM | PC-3 > 100 µM | EKVX > 100 µM | MCF7 > 100 µM | A549 > 100 µM | NCI/ADR-RES > 100 µM | SK-MEL-5 > 100 µM | SK-MEL-28 > 100 µM | KM12 > 100 µM | K562 30 µM | DU-145 > 100 µM | SK-OV-3 > 100 µM | SW-620 > 100 µM | TK-10 > 100 µM

CC1CC(Br)C(=O)O1 (stereo not given)
inactive: M14 > 100 µM | PC-3 > 100 µM | EKVX > 100 µM | MCF7 > 100 µM | Malme-3M > 100 µM | A549 > 100 µM | NCI/ADR-RES > 100 µM | SK-MEL-5 > 100 µM | SK-MEL-2 > 100 µM | OVCAR-5 > 100 µM | SK-MEL-28 > 100 µM | KM12 > 100 µM | K562 47 µM | LOX IMVI > 100 µM | DU-145 > 100 µM | SK-OV-3 > 100 µM | SW-620 > 100 µM | TK-10 > 100 µM

COc1ccccc1N=C(S)Nc1ccccn1
inactive: M14 > 100 µM | PC-3 > 100 µM | EKVX 55 µM | MCF7 > 100 µM | Malme-3M > 100 µM | A549 > 100 µM | NCI/ADR-RES > 100 µM | SK-MEL-5 > 100 µM | SK-MEL-2 > 100 µM | OVCAR-5 > 100 µM | NCI-H226 > 100 µM | SK-MEL-28 > 100 µM | KM12 > 100 µM | K562 > 100 µM | LOX IMVI > 100 µM | SK-OV-3 > 100 µM | SW-620 > 100 µM | TK-10 64.1 µM

CC1=C/C(=N\NS(=O)(=O)c2ccc([N+](=O)[O-])cc2)CC(C)(C)C1
inactive: M14 > 100 µM | PC-3 > 100 µM | EKVX > 100 µM | MCF7 > 100 µM | Malme-3M > 100 µM | A549 48.8 µM | NCI/ADR-RES 93.5 µM | SK-MEL-5 66.1 µM | SK-MEL-2 > 100 µM | OVCAR-5 > 100 µM | SK-MEL-28 > 100 µM | KM12 76.2 µM | K562 62.1 µM | LOX IMVI > 100 µM | DU-145 > 100 µM | SK-OV-3 > 100 µM | SW-620 > 100 µM | TK-10 > 100 µM
